The values that follow come from ChEMBL document CHEMBL1142830, “QSAR studies on structurally similar 2-(4-methanesulfonylphenyl)pyran-4-ones as selective COX-2 inhibitors: a Hansch approach” (Bioorg Med Chem Lett, 2005).

pIC50: −log10 of the molar value.

In this assay the target is T1, Prostaglandin G/H synthase 2 (Homo sapiens, UniProt P35354).
T1 sequence (P35354 whole entry): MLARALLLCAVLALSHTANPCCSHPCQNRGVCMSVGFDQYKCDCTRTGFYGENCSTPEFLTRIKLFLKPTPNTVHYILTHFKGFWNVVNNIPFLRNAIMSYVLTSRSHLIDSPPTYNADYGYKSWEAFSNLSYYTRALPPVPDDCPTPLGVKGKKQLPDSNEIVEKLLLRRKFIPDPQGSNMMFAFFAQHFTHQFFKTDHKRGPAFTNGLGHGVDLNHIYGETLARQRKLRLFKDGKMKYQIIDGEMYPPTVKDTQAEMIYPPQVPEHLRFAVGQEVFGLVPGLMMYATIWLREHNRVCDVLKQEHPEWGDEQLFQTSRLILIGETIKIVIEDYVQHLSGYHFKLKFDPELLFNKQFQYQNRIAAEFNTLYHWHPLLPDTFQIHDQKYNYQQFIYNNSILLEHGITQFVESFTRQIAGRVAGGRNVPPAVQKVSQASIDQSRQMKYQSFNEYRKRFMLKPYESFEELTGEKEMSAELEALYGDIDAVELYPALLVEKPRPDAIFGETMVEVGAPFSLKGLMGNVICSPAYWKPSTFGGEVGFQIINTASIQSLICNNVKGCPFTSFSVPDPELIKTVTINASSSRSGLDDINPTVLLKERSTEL
Briefly: Inhibitory concentration for Cyclooxygenase-2 (Prostaglandin G/H synthase 2) in human whole blood. The class given is tissue-based.
The pIC50 is the IC50 on a negative log10 scale, so that one unit is a factor of ten. Compound `Cc1cc(=O)c(Oc2ccc(OC(F)(F)F)cc2)c(-c2ccc(S(C)(=O)=O)cc2)o1` gave a pIC50 of 5.61.

For `CS(=O)(=O)c1ccc(-c2occ(Cl)c(=O)c2-c2ccc(-c3ccccc3)c(F)c2)cc1`, the pIC50 was 4.06. Compared with the last compound, the pIC50 is 1.55 log units lower. For `Cc1cc(=O)c(Oc2ccc(Cl)cc2Cl)c(-c2ccc(S(C)(=O)=O)cc2)o1` the value was 5.47.
